Data reported in patent US20070082872A1, “Indole-containing compounds with anti-tubulin and vascular targeting activity” (priority 1999, published 2007).

Tests used:
BXPC-3 (pancreas) = assay: In vitro growth inhibition (SRB), BXPC-3; format: cell-based, human; details: 48 hours incubation
Experimental: (§1) Newly prepared compounds were evaluated for cytotoxic activity against a variety of cell lines derived from human tumors using an assay system similar to the National Cancer Institute procedure previously described (Monks et al, J. Natl. Cancer Inst., 1991). Briefly, the cell suspensions, diluted according to the particular cell type and the expected target cell density (5,000-40,000 cells per well based on cell growth characteristics), were added by pipet (100 μl) to 96-well microtiter plates. Inoculates were allowed a preincubation time of 24-28 hours at 37° C. for stabilization. Incubation with the inhibitor compounds lasted for 48 hours in 5% CO2 atmosphere and 100% humidity. Determination of cell growth was performed by in situ fixation of cells, followed by staining with a protein-binding dye sulforhodamine B (SRB), which binds to the basic amino acids of cellular macromolecules. The solubilized stain was measured spectrophotometrically.
(§2) Several compounds were evaluated for cytotoxic activity against […] P388 leukemia cell lines. […] These and additional compounds were evaluated in terms of growth inhibitory activity against several other […] cancer cell lines including: central nervous system (“CNS”, SF-295), pancreas (BXPC-3), non-small cell lung cancer (“lung-NSC”, NCI-H460), breast (MCF-7), colon (KM20L2), ovarian (OVCAR-3), and prostate (DU-145). […]

SF-295 (CNS) = assay: In vitro growth inhibition (SRB), SF-295; format: cell-based, human; details: 48 hours incubation
Experimental: as §1, §2

[1] = system: MHEC-5T hemangioendothelioma tumor; assay: Inhibition of tumor blood flow, Fluorescent Bead Assay; format: in vivo, mice; details: for % VAPM (vessel area per tumor tissue area as a percentage of the control): single i.p. injection, 24 hours post-treatment
Experimental: The antivascular effects of the indole phosphate prodrug Oxi-8007, was assessed in tumor-bearing mice using a Fluorescent Bead Assay. A MHEC-5T hemangioendothelioma tumor model was established by subcutaneous injection of 0.5×10^6 cultured transformed cell murine myocardial vascular endothelial cell line (“MHEC5-T”) cells into the right flank of Fox Chase CB-17 Severe Combined Immunodeficient (“SCID”) mice. When transplanted tumors reached a size of 500 mm^3 (a size without development of necrosis), the mice received a single intraperitoneal (i.p.) injection of saline control or compound at doses ranging from 3.2 to 25 mg/kg. At 24 hours post-treatment, mice were injected intravenously with 0.25 ml of diluted FluoSphere beads (1:6 in physiological saline) in the tail vein, sacrificed after 3 minutes, and tumor was excised for cryosectioning. Tumor cryosections at a thickness of 8 um were directly examined using quantitative fluorescent microscopy. Blood vessels were indicated by blue fluorescence from injected beads. For quantification, image analysis of 3 sections from three tumors treated in each group were examined and vascular shutdown was expressed as vessel area (mm^2) per tumor tissue area (mm^2) as a percentage of the control (“%VAPM”). The results as shown in Table 4 indicate a clear dose-dependent effect of the agent on tumor blood flow as indicated by the reduction in blood vessel area at 24 hours following administration of Oxi8007. Administration of a dose of 100 mg/kg of Oxi-8007 or higher was particularly effective, causing a >98% reduction in tumor vessel volume relative to the control. A time-course of the effect of OX08007 on tumor blood flow is illustrated in FIG. 14.
Additional compounds of the present invention were tested for antivascular effects at two dosages (100 mg/kg and 10 mg/kg) using the same Fluorescent Bead Assay as in the previous experiment.

MDA-MB-231 cells = assay: Tumor growth control in vivo, MDA-MB-231 human breast adenocarcinoma model; details: SCID mice, 25, 50 or 100 mg/kg daily i.p. for 5 consecutive days; effective dose printed as X mg/kg
Experimental: The antitumor activity of indole phosphate prodrug, Oxi-8007, was assessed in tumor-bearing mice by measuring its effects on tumor volume. A human breast adenocarcinoma model was established by subcutaneous injection of cultured MDA-MB-231 cells in Fox Chase CB-17 SCID mice. When the average tumor size reached 50-100 mm^3, mice were randomly divided into several groups (n=10) with no significant difference in body weight and tumor size. Mice were administered Oxi-8007 in saline carrier at doses of 25, 50 or 100 mg/kg by daily intraperitoneal (i.p.) injection for 5 consecutive days (Q1×5). Saline carrier only was used as the control treatment. On Day 3, 7, 10, 13, 17 and 23, tumors were excised from animals in each treatment group (n=2) and measured by width and length. Tumor volume was calculated according to the following formula: Length×Width^2×0.4. The dosage effects of Oxi-com 197 is illustrated in FIG. 15.

DU-145 (prostate) = assay: In vitro growth inhibition (SRB), DU-145; format: cell-based, human; details: 48 hours incubation
Experimental: as §1, §2

NCI-H460 (lung-NSC) = assay: In vitro growth inhibition (SRB), NCI-H460; format: cell-based, human; details: 48 hours incubation
Experimental: as §1, §2

MCF-7 (breast) = assay: In vitro growth inhibition (SRB), MCF-7; format: cell-based, human; details: 48 hours incubation
Experimental: as §1, §2

KM20L2 (colon) = assay: In vitro growth inhibition (SRB), KM20L2; format: cell-based, human; details: 48 hours incubation
Experimental: as §1, §2

**Q.** How did the “GI50 for Cell Line BXPC-3” value (BXPC-3 (pancreas)) turn out when `COc1ccc2c(C(=O)c3cc(OC)c(OC)c(OC)c3)c(-c3ccc(OC)c(OP(=O)([O-])[O-])c3)[nH]c2c1.[Na+].[Na+]` [Oxi-8007, 2-(3′-Disodiumphosphate-4′-methoxyphenyl)-3-(3″,4″,5″-trimethoxybenzoyl)-6-methoxyindole] was run?
**A.** The value was 46 ng/mL.

**Q.** What about the “GI50 for Cell Line SF-295” value (SF-295 (CNS)) of the same compound?
**A.** The value was 5.5 ng/mL.

**Q.** And the “% VAPM (vessel area per tumor tissue area as a percentage of the control)” value ([1]; 50 mg/kg)?
**A.** Its value is 52%.

**Q.** And the “% VAPM (vessel area per tumor tissue area as a percentage of the control)” value ([1]; 100 mg/kg)?
**A.** The value was 2%.

**Q.** And the “% VAPM (vessel area per tumor tissue area as a percentage of the control)” value ([1]; 200 mg/kg)?
**A.** The value was 1%.

**Q.** What about the “reduction in tumor vessel volume relative to the control” value ([1]; dose of 100 mg/kg or higher, 24 hours) of the same compound?
**A.** The value was greater than 98%.

**Q.** And the “tumor growth (tumor volume) relative to control treatment” value (MDA-MB-231 cells)?
**A.** Its value is “significantly inhibited tumor growth”.

**Q.** And the “GI50 for Cell Line DU-145” value (DU-145 (prostate))?
**A.** Its value is less than 1 ng/mL.

**Q.** What about the “GI50 for Cell Line NCI-H460” value (NCI-H460 (lung-NSC)) of the same compound?
**A.** Its value is 2.7 ng/mL.

**Q.** And the “GI50 for Cell Line MCF-7” value (MCF-7 (breast))?
**A.** The value was 2.3 ng/mL.

**Q.** And the “GI50 for Cell Line KM20L2” value (KM20L2 (colon))?
**A.** Its value is 4.3 ng/mL.
